In patent US9546129B2, “DTPA prodrugs, compositions thereof, and methods of using the same” (priority 2012, dated 2017):
≈ marks a conversion by molar mass, not a printed value.

Tests used:
[1] = Aqueous solubility, preliminary test; assay type: physicochemical; details: thermodynamic from solid; distilled water, 10 minutes stirring, visual check, sample JH012B; read-out: Approximate solubility
Description: A small sample of C2E2 (0.1 g, JH012B) was weighed out and placed in a 25 mL graduated cylinder. Increasing volumes of distilled water were added according to the chart below:
After each addition of the indicated amount of water, the mixture was stirred for 10 minutes and visually checked for any dissolved parts of the sample. […] The approximate solubility is therefore 10-50 g/L.

[2] = Stability of C2E2 in plasma (rat); assay type: in vitro ADME; details: 37° C., up to two hours
Description: Prior to the study, 975 μL of plasma (Rat, Beagle and Human) was preheated to 37° C. in Eppendorff tubes and the test compound (C2E2) was prepared in DI water (10 mg/mL). The C2E2 was from Lot 050 obtained using Method 2. To initiate the study, 25 μL of the C2E2 solution was added to the pre-heated plasma and briefly vortexed, to mix. At 0, 15, 30, 60 and 120 minutes a 100 μL sample of plasma was taken, an equal volume of cold acetonitrile was added and mixed to precipitate plasma proteins. Samples were centrifuged at 4° C. and 14,000×g for 10 minutes to remove precipitated proteins, the supernatant was collected and the C2E2 concentration determined by HPLC-CAD. All conditions were repeated in triplicate.
HPLC Detection Methods: C2E2 analysis was performed on a prominence HPLC (Shimadzu Corporation, Kyoto, Japan) equipped with a Corona Ultra charged […] detector (CAD) (Thermo scientific, Sunnyvale, Calif.). […]
The gradient is 0.01-34.99 min: 22% B; 35.00-44.99 min: 33% B; 45.00-60.00 min: 38% B. The flow rate is 1.0 mL/min, a Thermo Hypersil ODS column (150 mm 4.6 mm i.d. with 5.0 μm particles) will be used, injection volume will be 10 μL and column oven temperature maintained at 25° C. […] The limit of quantification is 0.35 μg/mL. […]

[3] = tested on: Escherichia coli (E. coli) strain WP2uvrA; assay: Bacterial Reverse Mutation Assay (E. coli); assay type: cell-based; details: for Dose level with reductions in mean numbers of revertant colonies (toxicity): WP2uvrA
Description: The objective of this study was to evaluate C2E2 for its ability to induce reverse mutations at the histidine locus in Salmonella typhimurium tester strains TA98, TA100, TA1535, and TA1537, and at the tryptophan locus of Escherichia coli (E. coli) strain WP2uvrA in the presence or absence of an exogenous mammalian metabolic activation system (S9).
C2E2 was evaluated in an initial mutagenicity assay in all five tester strains at dose levels of 5.00, 16.0, 50.0, 160, 500, 1600, and 5000 μg/plate with and without S9. C2E2 was from Lot 050 obtained using Method 2. C2E2 was prepared in Cell Culture Grade Water vehicle and formed a transparent colorless solution. […] The reductions in the numbers of revertant colonies and the enhanced background lawn growth are indicative of C2E2 treatment-related toxicity. With exception to the enhanced background lawn in TA1537 without S9, all other background lawns in all strains, with and without S9, were normal indicating there was appropriate bacterial growth during treatment to express a mutagenic event. There were no relevant increases in the numbers of revertant colonies observed at any dose level with any strain in the absence or presence of S9 metabolic activation.

[4] = tested on: Chinese hamster ovary (CHO) cells; assay: In vitro chromosomal aberration assay; assay type: cell-based
Description: The objective of this in vitro assay was to evaluate the ability of C2E2 to induce chromosomal aberrations in cultured Chinese hamster ovary (CHO) cells with and without an exogenous metabolic activation system.
C2E2 was prepared in cell culture grade water (CCGW) and formed a colorless, transparent, solution. The C2E2 was from Lot 050 obtained using Method 2. Subsequent stocks were prepared by serial dilution in vehicle and all treatments were administered into 10 mL cultures in a volume of 10%. Vehicle control cultures were treated with 100 μL/mL per culture. The treatment periods were for 3 hours with and without metabolic activation or approximately 20 hours without metabolic activation.
In an initial chromosomal aberration assay (B1 test), C2E2 concentrations of 6.92, 9.89, 14.1, 20.2, 28.8, 41.2, 58.8, 84.0, 120, 172, 245, 350, and 500 μg/mL were tested in duplicate cultures in the 3- and 20-hour tests without S9 and in the 3-hour test with S9 metabolic activation. All cultures, under all test conditions, were harvested approximately 20 hours from the initiation of treatment. At culture termination, viable cells were counted and population doubling was calculated for measurement of cytotoxicity to support selection of dose levels for aberration analysis. Visual observations of cultures for general cell health and confluence were made prior to termination.

[5] = tested on: polychromatic erythrocytes (PCE) in Sprague-Dawley rat bone marrow; assay: In vivo micronucleus assay
Description: The objective of this study was to evaluate C2E2 for in vivo clastogenic activity and/or disruption of the mitotic apparatus by detecting micronuclei in polychromatic erythrocytes (PCE) in Sprague-Dawley rat bone marrow.
C2E2 was formulated in cell culture grade water vehicle and the dose volume for all treatment groups was 20 mL/kg. The C2E2 was from Lot 050 obtained using Method 2.
Male rats were administered vehicle control, or 500, 1000, or 2000 mg/kg/day of C2E2 once a day for two days separated by approximately 24 hours. The 2000 mg/kg high dose is the limit dose for this assay recommended by ICH S2(R1) guidance. A positive control group of animals received a single 60 mg/kg cyclophosphamide treatment on the second day of dosing. […] Bone marrow was extracted approximately 24 hours after the last treatment in all groups and at least 2000 PCEs per animal were analyzed for the frequency of micronuclei. Cytotoxicity was assessed by scoring the number of PCEs and normochromatic erythrocytes (NCEs) observed while scoring at least 500 erythrocytes per animal.

Structure (SMILES): CCOC(=O)CN(CCN(CCN(CC(=O)O)CC(=O)OCC)CC(=O)O)CC(=O)O [C2E2, 6,9-bis(carboxymethyl)-3-(2-ethoxy-2-oxoethyl)-11-oxo-12-oxa-3,6,9-triazatetradecan-1-oic acid]
- solubility at 10 min [1]: 10 to 50 mg/mL (≈ 22.2 to 111 mM)
- Metabolism in plasma (observation) [2]: minimal or not detected
- Dose level with reductions in mean numbers of revertant colonies (toxicity) ([3]; with S9): ≥ 500 μg/plate
- Dose level with reductions in mean numbers of revertant colonies (toxicity) ([3]; without S9): 5000 μg/plate
- Mutagenicity (reverse mutations at the tryptophan locus) ([3]; up to 5000 μg/plate, with and without S9): negative
- Reduction in the mitotic index compared to vehicle control ([4]; 14.1 μg/mL, 20-hour test without S9): 53%
- Cytotoxicity (observation) ([4]; 3-hour treatment with and without S9, up to 500 μg/mL): no relevant cytotoxicity
- Induction of chromosomal aberrations ([4]; with and without S9, up to cytotoxicity limiting dose levels and 500 μg/mL): negative
- Bone marrow cytotoxicity (PCE:NCE ratios) ([5]; 500, 1000, 2000 mg/kg/day x2 days, male rats): absence of treatment-related bone marrow cytotoxicity
- Induction of micronuclei in rat bone marrow ([5]; 500, 1000, or 2000 mg/kg/day orally once a day for 2 days, male rats): negative
- Clinical signs ([5]; one 2000 mg/kg/day animal, Day 2): audible respiration and hypoactive behavior
